Earlier results on one compound are cited in patent publication US20200022949A1, “COMPOSITION AND METHOD FOR THE ALLEVIATION OF EFFECTS OF ALCOHOL CONSUMPTION” (Detoxicated Inc., priority 2018, published 2020).

For this data set, the system named is non-alcoholic fatty liver disease. The settings on record: patients with non-alcoholic fatty liver disease.

`O=C1c2c(O)cc(O)cc2O[C@H](c2cc(O)c(O)c(O)c2)[C@H]1O` [DHM, dihydromyricetin]: the “liver health (levels of liver enzymes and inflammatory cytokines)” value is “improve liver health”.
